Measured values: publication PMC5410595, “In Vitro and In Silico Antidiabetic and Antimicrobial Evaluation of Constituents from Kickxia ramosissima (Nanorrhinum ramosissimum)” (Frontiers in Pharmacology, 2017)
pIC50: −log10 of the molar value. “Also recorded” adds a separate entry of the source.

Tests used:
Type in all cases: biochemical
[1] = tested on: AAPH induced linoleic acid peroxidation; test: Inhibition of linoleic acid lipid peroxidation, AAPH assay; settings: slope of inhibition time (Tinh) vs. concentration of antioxidant
Description: The inhibition of linoleic acid lipid peroxidation was studied according to [Liegeois et al. (2000)] and [Rajic et al. (2010)]. Briefly, 10 μL of a 16 mM linoleic acid dispersion and 10 μL of the test compound (8-1 μM final concentration) were added to the UV cuvette containing 0.93 mL of 0.05 M phosphate buffer, pH 7.4. The oxidation reaction was initiated under air by the addition of 50 μL (40 mM) of AAPH solution. The rate of oxidation at 37°C was monitored by recording the increase of absorption at 234 nm caused by conjugated diene hydroperoxides. The results were compared to the standard inhibitor (Trolox). The AOP is defined as the slope of the curve representing the inhibition time of oxidation (Tinh) vs. the concentration of antioxidant and is expressed in min/μM.

[2] = tested on: formation of AGEs (BSA-MGO); test: BSA-MGO antiglycation assay; settings: for Protein glycation BSA-MGO % inhibition: isolated constituents, highest test concentration; for pIC50: read-out: Protein glycation BSA-MGO IC50
Description: (§1) The BSA-glucose and BSA-MGO antiglycation assays were performed as reported before ([Amin et al., 2016]). The test protocol is attached as Supplementary Material ([Amin et al., 2016]).
60 Protein-glyoxal interaction (BSA-MGO assay)
61 The antiglycation assay using methylgloxyl (MGO) was performed according to the method
62 developed by Peng et al. (2007) with slight modifications. Briefly, methylglyoxal (135 μL, 5.75
63 mM) was incubated with BSA (135 μL, 10 mg/mL) dissolved in phosphate buffer (50 mM, pH
64 7.4, containing sodium azide (0.02%), added to prevent bacterial growth) and test compounds
65 (30 μL) at different final concentrations (1.5 – 0.023 mM) in 100% DMSO. The reaction
66 mixture was incubated at 37 °C for one week. Control solutions only contained methylglyoxal
67 (135 μL, 5.75 mM) BSA (135 μL, 1 0mg/mL) and DMSO (100%) only. The blank samples of
68 similar composition were also prepared simultaneously and kept at 4 °C for one week. The
70 440) due to formation of AGEs was monitored by spectrofluorometry (Tecan® Infinite M200,
71 Giessen, The Netherlands). Aminoguanidine (3-0.046 mM final concentration) was used as
72 reference compound. The AGEs inhibition was calculated as
74 % AGEs inhibition = [1–(S–Sb)/(C–Cb)] x 100
76 where S and C were fluorescence of test samples (in DMSO) and control (test mixtures
77 containing only DMSO) incubated at 37 °C, and where Sb and Cb were fluorescence for
78 samples incubated at 4 °C.
79 using Sigma plot® 13.0.

[3] = tested on: formation of AGEs (BSA-glucose); test: BSA-glucose antiglycation assay; settings: for Protein glycation BSA-Glucose % inhibition: isolated constituents, at the highest test concentration of 3 mM; for pIC50: read-out: Protein glycation BSA-Glucose IC50
Description: as §1
28 Antiglycation assay (BSA-Glucose assay)
29 In the BSA-glucose assay the prevention of AGEs formation is investigated by determining the
30 fluorescence of the complex formed after incubation of a sugar (glucose) with protein (BSA) in
31 the presence or absence of test compounds. The antiglycation assay was performed according to
32 the method developed by Matsuura et al. (2002) with minor modifications. […]
37 DMSO. The mixtures were incubated at 60°C for 48 h. After incubation, the reaction mixture
38 was allowed to cool down at room temperature. Then 100 µL reaction mixture was transferred
39 to a new plastic tube (1.5 mL) and the reaction was stopped by adding 10 μL of 100% (w/v)
40 trichloroacetic acid (TCA) and to precipitate proteins. The TCA-added mixture was kept at 4°C
41 for 10 min, followed by centrifugation (14000 rpm, 4 °C, 4 min). The supernatant containing
42 unreacted D-glucose, test sample and interfering substances was discarded, whereas the
44 8.1 mM Na2HPO4, 2.68 mM KCl, 1.47 mM KH2PO4, […]). The change in fluorescence
46 of AGEs was monitored by spectrofluorometry (Tecan™ Infinite M200, Giessen, The
47 Netherlands). In order to eliminate interference by autofluorescence of the test compounds, a
48 parallel incubation of test substance with BSA at 60°C without D-glucose was performed for all
50 final concentration) were used as reference compounds.
51 The AGEs inhibition was calculated as
55 where F is the fluorescence intensity.
56 calculated using Sigma plot® 13.0.

Structure (SMILES)	AAPH assay AOP (antioxidant power) [1]	Protein glycation BSA-MGO % inhibition [2]	Protein glycation BSA-Glucose % inhibition [3]	pIC50 [2]	pIC50 [3]
CO[C@H]1C[C@@]2(O)[C@H](O)[C@@H](O)[C@](C)(OC)[C@H]2[C@@H](OC)O1 [Compound 1, Kickxiasine]	0.3 min/µM	31%	26%	–	–
CC1(O)CCC2C(C(=O)O)=COC(OC3OC(CO)C(O)C(O)C3O)C21 (stereo not drawn) [Compound 2, Mussaenosidic acid]	0.2 min/µM	23%	35%	–	–
COC(=O)C1=COC(OC2OC(CO)C(O)C(O)C2O)C2C1CCC2(C)O (stereo not drawn) [Compound 3, Mussaenoside]	0.1 min/µM	24%	28%	–	–
COc1ccc(-c2cc(=O)c3c(O)c(OC)c(O)cc3o2)cc1 [Compound 5, Pectolinarigenin]	0.2 min/µM	–	–	3.72	3.10
COc1ccc(-c2cc(=O)c3c(O)c(OC)c(O[C@@H]4O[C@H](CO[C@@H]5O[C@@H](C)[C@H](O)[C@@H](O)[C@H]5O)[C@@H](O)[C@H](O)[C@H]4O)cc3o2)cc1 [Compound 6, Pectolinarin]	0.3 min/µM	–	–	3.89	2.64
COC(=O)c1ccc(O)cc1 [Compound 7, 4-Hydroxy benzoic acid methyl ester]	did not present any activity; also recorded: Not active	did not present any inhibition; also recorded: no activity	did not present any inhibition; also recorded: no activity	–	–
